{"source": "patent US5623080A", "about": "“Fluorone and pyronin Y derivatives” (Spectra Group Limited, Inc., priority 1995, dated 1997)", "key": {"depth of cure": {"assay": "depth of cure", "description": "One of the advantages of the fluorone dye photoinitiators in this invention is the depth of the cure that is obtainable. This is in contrast to UV photoinitators that causes a \"screening\" effect which prevents the UV light from penetrating beyond a certain […] depth, usually several millimeters. By contrast, the fluorone dye bleaches as it photoinitiates and is concommitantly converted into a non-visible absorbing species thus allowing more visible light to penetrate which continues the cure. This cascading bleaching effect permits substantial depth of cure which can easily reach several inches.\nAn acrylate monomer mixture was composed of 15 parts urethane diacrylate, 20 parts TPGPA, 40 parts TMPTA and 15 parts DPHPA, and a 20 to 1 weight ratio of NPG coinitiator to DIEF or DIBF fluorone dye. For dye concentrations of 0.01, 0.05 and 0.1 weight, all the formulations cured to a depth of 3 cm in 30 seconds when exposed to a 350 watt tungsten halogen light which provides about 500 mw/cm^2 irradiance. When the irradiance was increased to about 2 watts/cm^2 cure speed was shortened to 5 seconds for the same depth.\nAn acrylate mixture was composed of 60% urethane diacrylate, 30% DPHPA, 10% BDDA, and 0.05 weight % of DIEF or DIBF fluorone dye with 2 weight % of DIDMA. The formulation cure to a depth greater than 1 cm in 10 seconds when exposed to a 75 watt tungsten halogen lamp which provided an irradiance of about 260 mw/cm^2.\nAn acrylate mixture was composed of 33% TMPTA, 33% DPHPA, 33% Epoxy acrylate, and 2% of DIDMA with either 0.01, 0.05 or 0.1 weight % of DIEF. All samples cured to a depth greater than 1 cm in 10 seconds when exposed to a 75 watt tungsten halogen.\nAn acrylate mixture was composed of 70% urethane diacrylate, 5% DPHPA, 25% BDDA, and 2% DIDMA with either 0.01, 0.03 or 0.1 weight % DIEF. The 0.01 and 0.03 samples cured after 2 passes through a 300 watt per inch medium pressure mercury arc lamp at a speed of 50 feet/minute to a depth greater than 3 mm. The 0.1 sample cured to a depth of greater than 1.5 mm."}, "[1]": {"assay": "double bond conversion (C=C% Conversion) by FTIR", "conditions": "DIDMA", "method": "(§1) To a resin formulation consisting of 15 parts urethane diacrylate, 15 parts DPHPA, 20 parts TPGDA and 40 parts TMPTA was added DIDMA, initiator and (4-octyloxyphenyl)phenyliodonium hexafluoroantimonate (OPPI). The samples were coated to a thickness of 15 microns and exposed to a 75 W tungsten halogen dental lamp (focused through an optical fiber) at a distance of 0.75 inch at which the Light intensity was about 0.40 W/cm^2. The molar ratios are indicative of the amounts of fluorone to onium salt to amine coinitiator. The double bond conversion was determined by FTIR spectroscopy. The pencil hardness of a given test sample is measured by holding a pencil at a 45° angle to the sample and drawing across it towards the person testing it. Using the pencils in an order from softest to hardest, the first pencil that scratches the surface is assigned as the pencil hardness of the sample. The pencil hardness scale is as follows from softest to hardest: 4B, 3B, 2B, B, HB, H, 2H, 3H, 4H, 6H. For instance, if a 2H pencil is the first pencil to scratch the surface then the pencil hardness is 2H.\n(§2) The foregoing study was repeated using 100% butanediol diacrylate, and 100% polyethylene glycol diacrylate (MW=400)(PEGA 400)."}, "[2]": {"assay": "double bond conversion (C=C% Conversion) by FTIR", "conditions": "DIDMA", "method": "as §1, §2", "remark": "listed apart in the source"}, "pencil hardness": {"assay": "pencil hardness", "method": "as §1\nAt the extreme ends of the scale, it is impossible to determine the actual pencil hardness. […] Likewise, if the 4B pencil scratches the sample, the only assignment that can be made is <4B, unless it is a lot softer than 4B in which case a <<4B can be assigned. A pencil hardness of 4H is generally considered satisfactory. Pencil hardness data was greater than 6H after 30 seocnd exposure for all samples except for the control samples without amine (1:2:0). The controls were all less than 4B an 0.05 wt %, 0.10 wt %, and 0.15 wt %.\nPhotosensitive compositions were prepared from the resin formulation of Example 35 containing 1% NPG and 0.05% DIBF or 0.05% DIEF. The samples were exposed under the conditions shown in the following table and pencil hardness was measured.\nDiphenyliodonium hexafluoroantimonate was added to DIBF samples.\nSamples were also prepared using 1% DIDMA in addition to the fluorone for a 20:1 weight ratio.\nSamples were also prepared from the same resin formulation containing 0.1% DIBF in addition to the coinitiator listed in the following Table 9 with the exposure condition and pencil hardness results shown.\nUsing the resin formulation of Example 36, photosensitive compositions were prepared using TIHF, DIDMA and OPPI at a concentration of 0.21% and in the molar ratios shown in Table 10 which follows. Exposure was conducted with the dental lamp at a distance of 1 inch from the sample to provide an intensity of about 0.26 W/cm^2. Molar ratios are fluorone:onium salt:amine."}}}
{"compound": "CCCCOc1ccc2cc3cc(I)c(=O)c(I)c-3oc2c1", "note": "[DIBF, 5,7-diiodo-3-butoxy-6-fluorone]", "values": [{"measurement": "depth of cure", "setting": "depth of cure; 10 seconds, 75 watt tungsten halogen, about 260 mw/cm^2, 0.05 weight % dye, 2 weight % DIDMA, 60% urethane diacrylate, 30% DPHPA, 10% BDDA", "result": "greater than 1 cm"}, {"measurement": "depth of cure", "setting": "depth of cure; 30 seconds, 350 watt tungsten halogen, about 500 mw/cm^2, dye 0.01, 0.05 and 0.1 weight, NPG 20 to 1", "result": 3, "unit": "cm"}, {"measurement": "cure time for the same depth (3 cm)", "setting": "depth of cure; about 2 watts/cm^2, NPG 20 to 1", "result": 5, "unit": "s"}, {"measurement": "C=C% Conversion", "setting": "[1]; 0.05 wt %, (1:0:60), 60 sec", "result": 50, "unit": "%"}, {"measurement": "C=C% Conversion", "setting": "[1]; 0.05 wt %, (1:2:3), 60 sec", "result": 61, "unit": "%"}, {"measurement": "C=C% Conversion", "setting": "[1]; 0.10 wt %, (1:2:3), 60 sec", "result": 90, "unit": "%"}, {"measurement": "C=C% Conversion", "setting": "[1]; 0.15 wt %, (1:2:3), 10 sec", "result": 60, "unit": "%"}, {"measurement": "C=C% Conversion", "setting": "[1]; 0.15 wt %, (1:2:3), 30 sec", "result": 84, "unit": "%"}, {"measurement": "C=C% Conversion", "setting": "[1]; 0.15 wt %, (1:2:3), 60 sec", "result": 90, "unit": "%"}, {"measurement": "C=C% Conversion", "setting": "[2]; 0.05 wt %, (1:0:60), 30 sec", "result": 30, "unit": "%"}, {"measurement": "C=C% Conversion", "setting": "[2]; 0.05 wt %, (1:2:3), 30 sec", "result": 49, "unit": "%"}, {"measurement": "C=C% Conversion", "setting": "[2]; 0.10 wt %, (1:2:3), 30 sec", "result": 56, "unit": "%"}, {"measurement": "C=C% Conversion", "setting": "[2]; 0.10 wt %, (1:2:3), 60 sec", "result": 56, "unit": "%"}, {"measurement": "C=C% Conversion", "setting": "[2]; 0.15 wt %, (1:3:3), 30 sec", "result": 58, "unit": "%"}, {"measurement": "Pencil hardness", "setting": "pencil hardness; 0.05 wt. % w/ 0.05 wt. % DPISbF6, Dental Lamp, Air, 60 sec", "result": 2, "unit": "H"}, {"measurement": "Pencil hardness", "setting": "pencil hardness; 0.05 wt. % w/ 0.05 wt. % DPISbF6, Dental Lamp, No Air, 10 sec", "result": "> 6", "unit": "H"}, {"measurement": "Pencil hardness", "setting": "pencil hardness; 0.05 wt. % w/ 0.05 wt. % DPISbF6, Fusion (Q bulb), Air, 10 ft/min", "result": "> 6", "unit": "H"}, {"measurement": "Pencil hardness", "setting": "pencil hardness; 0.05 wt. % w/ 0.05 wt. % DPISbF6, Fusion (Q bulb), Air, 20 ft/min", "result": "> 6", "unit": "H"}, {"measurement": "Pencil hardness", "setting": "pencil hardness; 0.05 wt. %, 1% DIDMA, Dental Lamp, No Air, 10 sec", "result": "5-6H"}, {"measurement": "Pencil hardness", "setting": "pencil hardness; 0.05 wt. %, 1% DIDMA, Dental Lamp, No Air, 30 sec", "result": "> 6", "unit": "H"}, {"measurement": "Pencil hardness", "setting": "pencil hardness; 0.05 wt. %, 1% DIDMA, Dental Lamp, No Air, 60 sec", "result": "> 6", "unit": "H"}, {"measurement": "Pencil hardness", "setting": "pencil hardness; 0.05 wt. %, 1% DIDMA, Fusion (Q bulb), Air, 10 ft/min", "result": "> 6", "unit": "H"}, {"measurement": "Pencil hardness", "setting": "pencil hardness; 0.05 wt. %, 1% DIDMA, Fusion (Q bulb), Air, 20 ft/min", "result": 3, "unit": "H"}, {"measurement": "Pencil hardness", "setting": "pencil hardness; 0.05 wt. %, 1% NPG, Dental Lamp, No Air, 10 sec", "result": 4, "unit": "H"}, {"measurement": "Pencil hardness", "setting": "pencil hardness; 0.05 wt. %, 1% NPG, Dental Lamp, No Air, 30 sec", "result": "> 6", "unit": "H"}, {"measurement": "Pencil hardness", "setting": "pencil hardness; 0.05 wt. %, 1% NPG, Dental Lamp, No Air, 60 sec", "result": "> 6", "unit": "H"}, {"measurement": "Pencil hardness", "setting": "pencil hardness; 0.05 wt. %, 1% NPG, Fusion (Q bulb), Air, 10 ft/min", "result": "> 6", "unit": "H"}, {"measurement": "Pencil hardness", "setting": "pencil hardness; 0.05 wt. %, 1% NPG, Fusion (Q bulb), Air, 20 ft/min", "result": 4, "unit": "H"}, {"measurement": "Pencil hardness", "setting": "pencil hardness; 0.05 wt. %, 1% NPG, Overhead Proj., No Air, 60 sec", "result": "5-6H"}, {"measurement": "Pencil hardness", "setting": "pencil hardness; 0.1% DIBF, 1.5% DIDMA, Dental Lamp, No Air, 10 sec", "result": "> 6", "unit": "H"}, {"measurement": "Pencil hardness", "setting": "pencil hardness; 0.1% DIBF, 1.5% DIDMA, Dental Lamp, No Air, 30 sec", "result": "> 6", "unit": "H"}, {"measurement": "Pencil hardness", "setting": "pencil hardness; 0.1% DIBF, 1.5% DIDMA, Dental Lamp, No Air, 60 sec", "result": "> 6", "unit": "h"}, {"measurement": "Pencil hardness", "setting": "pencil hardness; 0.1% DIBF, 1.5% DIDMA, Fusion (Q bulb), Air, 10 ft/min", "result": "> 6", "unit": "H"}, {"measurement": "Pencil hardness", "setting": "pencil hardness; 0.1% DIBF, 1.5% DIDMA, Fusion (Q bulb), Air, 20 ft/min", "result": "5-6H"}, {"measurement": "Pencil hardness", "setting": "pencil hardness; 0.1% DIBF, 1.5% NPG, Dental Lamp, No Air, 10 sec", "result": "5-6H"}, {"measurement": "Pencil hardness", "setting": "pencil hardness; 0.1% DIBF, 1.5% NPG, Dental Lamp, No Air, 30 sec", "result": "> 6", "unit": "H"}, {"measurement": "Pencil hardness", "setting": "pencil hardness; 0.1% DIBF, 1.5% NPG, Dental Lamp, No Air, 60 sec", "result": "> 6", "unit": "h"}, {"measurement": "Pencil hardness", "setting": "pencil hardness; 0.1% DIBF, 1.5% NPG, Fusion (Q bulb), Air, 10 ft/min", "result": "> 6", "unit": "H"}, {"measurement": "Pencil hardness", "setting": "pencil hardness; 0.1% DIBF, 1.5% NPG, Fusion (Q bulb), Air, 20 ft/min", "result": "5-6H"}, {"measurement": "Pencil hardness", "setting": "pencil hardness; 0.1% DIBF, 2% NPG, Dental Lamp, No Air, 10 sec", "result": "5-6H"}, {"measurement": "Pencil hardness", "setting": "pencil hardness; 0.1% DIBF, 2% NPG, Dental Lamp, No Air, 30 sec", "result": "> 6", "unit": "H"}, {"measurement": "Pencil hardness", "setting": "pencil hardness; 0.1% DIBF, 2% NPG, Dental Lamp, No Air, 60 sec", "result": "> 6", "unit": "H"}, {"measurement": "Pencil hardness", "setting": "pencil hardness; 0.1% DIBF, 2% NPG, Fusion (Q bulb), Air, 10 ft/min", "result": "> 6", "unit": "H"}, {"measurement": "Pencil hardness", "setting": "pencil hardness; 0.1% DIBF, 2% NPG, Fusion (Q bulb), Air, 20 ft/min", "result": "5-6H"}, {"measurement": "Pencil hardness", "setting": "pencil hardness; Table 11, 0.05%, (1:0:60), DIDMA, 10 sec.", "result": 4, "unit": "H"}, {"measurement": "Pencil hardness", "setting": "pencil hardness; Table 11, 0.05%, (1:0:60), DIDMA, 60 sec.", "result": "> 6", "unit": "H"}, {"measurement": "Pencil hardness", "setting": "pencil hardness; Table 11, 0.05%, (1:1:60), DIDMA, 10 sec.", "result": "> 6", "unit": "H"}, {"measurement": "Pencil hardness", "setting": "pencil hardness; Table 11, 0.05%, (1:2:3), DIDMA, 60 sec.", "result": "> 6", "unit": "H"}, {"measurement": "Pencil hardness", "setting": "pencil hardness; Table 11, 0.05%, (1:2:3), NPG, 60 sec.", "result": "> 6", "unit": "H"}, {"measurement": "Pencil hardness", "setting": "pencil hardness; Table 11, 0.10%, (1:2:3), DIDMA, 60 sec.", "result": "> 6", "unit": "H"}, {"measurement": "Pencil hardness", "setting": "pencil hardness; Table 11, 0.15%, (1:2:3), DIDMA, 60 sec.", "result": "> 6", "unit": "H"}]}
